US20090298820A1, “3-SUBSTITUTED-1H-PYRROLO[2,3-B]PYRIDINE AND 3-SUBSTITUTED-1H-PYRROLO[3,2-B]PYRIDINE COMPOUNDS, THEIR USE AS MTOR KINASE AND PI3 KINASE INHIBITORS, AND THEIR SYNTHESES” (Wyeth, priority 2008, published 2009)
pIC50: −log10 of the molar value.

Experiments:
Assay type in all cases: biochemical
PI3Kα = PI3Kα (Homo sapiens, UniProt P42336); test: PI3K-alpha fluorescence polarization assay; conditions: read-out: PI3Kα Median IC50
mTOR = mTOR (Homo sapiens, UniProt P42345); test: mTOR enzyme assay (DELFIA format, His6-S6K substrate); conditions: read-out: mTOR Kinase Median IC50
PI3Kγ = PI3Kγ (Homo sapiens, UniProt P48736); test: PI3K-gamma fluorescence polarization assay; conditions: read-out: PI3Kγ Median IC50
PI3Kγ, sequence (P48736 whole entry, species assumed): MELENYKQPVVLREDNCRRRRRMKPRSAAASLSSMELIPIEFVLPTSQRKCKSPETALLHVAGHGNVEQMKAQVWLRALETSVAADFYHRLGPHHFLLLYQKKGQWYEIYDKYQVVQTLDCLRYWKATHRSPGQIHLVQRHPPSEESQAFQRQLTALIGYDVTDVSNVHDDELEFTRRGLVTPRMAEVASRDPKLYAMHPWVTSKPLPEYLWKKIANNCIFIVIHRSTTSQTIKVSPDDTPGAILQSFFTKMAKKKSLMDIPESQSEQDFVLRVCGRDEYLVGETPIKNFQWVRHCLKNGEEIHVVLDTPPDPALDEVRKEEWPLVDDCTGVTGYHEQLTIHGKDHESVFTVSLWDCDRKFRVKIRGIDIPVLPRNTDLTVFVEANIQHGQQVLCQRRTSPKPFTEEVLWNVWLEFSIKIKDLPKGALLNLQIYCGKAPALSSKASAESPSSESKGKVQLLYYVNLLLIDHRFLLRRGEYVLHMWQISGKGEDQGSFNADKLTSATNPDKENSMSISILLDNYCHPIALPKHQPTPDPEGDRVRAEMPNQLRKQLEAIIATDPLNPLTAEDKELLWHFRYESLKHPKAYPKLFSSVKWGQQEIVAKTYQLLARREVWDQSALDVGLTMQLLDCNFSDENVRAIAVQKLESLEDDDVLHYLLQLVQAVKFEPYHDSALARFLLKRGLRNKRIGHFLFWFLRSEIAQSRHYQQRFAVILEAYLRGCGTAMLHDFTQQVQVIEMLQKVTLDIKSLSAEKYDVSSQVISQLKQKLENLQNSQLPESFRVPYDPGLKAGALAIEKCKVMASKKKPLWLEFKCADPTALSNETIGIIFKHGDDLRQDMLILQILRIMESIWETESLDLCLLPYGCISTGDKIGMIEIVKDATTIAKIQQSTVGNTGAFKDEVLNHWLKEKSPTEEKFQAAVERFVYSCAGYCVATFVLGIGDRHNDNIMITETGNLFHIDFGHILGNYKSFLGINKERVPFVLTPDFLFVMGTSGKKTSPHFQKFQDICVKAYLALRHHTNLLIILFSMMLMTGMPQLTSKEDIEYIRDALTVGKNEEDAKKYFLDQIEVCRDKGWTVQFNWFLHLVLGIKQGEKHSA

PI3Kα, sequence (P42336 whole entry, species assumed): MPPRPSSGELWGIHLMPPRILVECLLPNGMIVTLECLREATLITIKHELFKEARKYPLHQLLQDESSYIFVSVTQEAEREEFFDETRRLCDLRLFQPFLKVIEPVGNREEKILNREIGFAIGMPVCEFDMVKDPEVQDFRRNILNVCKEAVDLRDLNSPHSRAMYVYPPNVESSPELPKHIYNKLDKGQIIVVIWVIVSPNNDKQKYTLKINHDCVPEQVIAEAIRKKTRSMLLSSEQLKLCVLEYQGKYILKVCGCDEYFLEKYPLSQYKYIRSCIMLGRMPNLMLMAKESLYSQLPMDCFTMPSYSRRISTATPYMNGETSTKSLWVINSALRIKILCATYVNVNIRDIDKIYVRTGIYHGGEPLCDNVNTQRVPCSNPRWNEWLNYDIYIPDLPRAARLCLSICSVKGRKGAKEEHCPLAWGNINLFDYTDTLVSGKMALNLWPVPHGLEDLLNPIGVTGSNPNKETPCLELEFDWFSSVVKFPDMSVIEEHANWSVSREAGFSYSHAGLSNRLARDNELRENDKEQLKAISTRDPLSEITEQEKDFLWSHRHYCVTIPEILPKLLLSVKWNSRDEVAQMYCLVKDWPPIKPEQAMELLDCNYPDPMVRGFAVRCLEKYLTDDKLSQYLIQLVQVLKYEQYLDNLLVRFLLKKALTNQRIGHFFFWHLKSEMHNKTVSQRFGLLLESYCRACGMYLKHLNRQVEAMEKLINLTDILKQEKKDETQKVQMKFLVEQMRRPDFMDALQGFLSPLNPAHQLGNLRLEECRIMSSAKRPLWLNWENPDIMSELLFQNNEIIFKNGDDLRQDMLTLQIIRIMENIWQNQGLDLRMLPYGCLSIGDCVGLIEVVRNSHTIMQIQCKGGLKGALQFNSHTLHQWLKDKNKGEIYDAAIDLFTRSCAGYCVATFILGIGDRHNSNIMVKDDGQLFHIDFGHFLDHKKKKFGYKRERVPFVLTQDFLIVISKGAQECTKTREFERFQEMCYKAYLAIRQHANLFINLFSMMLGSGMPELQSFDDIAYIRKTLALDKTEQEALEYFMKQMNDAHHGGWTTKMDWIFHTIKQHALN
PI3Kα, sequence (P27986 whole entry partner, species assumed): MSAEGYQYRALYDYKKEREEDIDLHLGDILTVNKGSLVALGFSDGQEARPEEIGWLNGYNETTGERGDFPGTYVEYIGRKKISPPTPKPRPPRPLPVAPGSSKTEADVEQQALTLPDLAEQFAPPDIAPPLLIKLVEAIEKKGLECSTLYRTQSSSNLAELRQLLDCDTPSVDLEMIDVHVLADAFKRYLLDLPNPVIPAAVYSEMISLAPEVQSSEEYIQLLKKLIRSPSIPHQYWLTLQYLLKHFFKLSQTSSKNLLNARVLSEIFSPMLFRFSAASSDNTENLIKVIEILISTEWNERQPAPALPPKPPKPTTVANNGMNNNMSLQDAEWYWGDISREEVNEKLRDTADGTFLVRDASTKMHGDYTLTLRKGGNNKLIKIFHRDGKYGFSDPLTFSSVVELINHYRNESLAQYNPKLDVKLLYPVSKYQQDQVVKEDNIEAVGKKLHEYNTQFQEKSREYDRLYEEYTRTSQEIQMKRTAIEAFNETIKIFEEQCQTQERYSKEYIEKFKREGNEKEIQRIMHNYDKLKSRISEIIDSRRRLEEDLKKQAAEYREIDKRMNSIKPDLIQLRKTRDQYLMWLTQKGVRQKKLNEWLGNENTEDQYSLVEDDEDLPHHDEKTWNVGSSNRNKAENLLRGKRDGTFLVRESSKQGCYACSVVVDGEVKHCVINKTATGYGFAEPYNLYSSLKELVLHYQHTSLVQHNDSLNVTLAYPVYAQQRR

Structure (SMILES)	pIC50 (PI3Kα)	pIC50 (mTOR)	pIC50 (PI3Kγ)
CN(C)C(=O)C1CCN(c2ccnc3c2c(/C=C2\Oc4ccc(NC(=O)Nc5ccc(OC6CCOCC6)nc5)cc4C2=O)cn3C)CC1 [Compound 267, N,N-dimethyl-1-(1-methyl-3-{(Z)-[3-oxo-5-({[6-(tetrahydro-2H-pyran-4-yloxy)pyridin-3-yl]carbamoyl}amino)-1-benzofuran-2(3H)-ylidene]methyl}-1H-pyrrolo[2,3-b]pyridin-4-yl)piperidine-4-carboxamide]	6.30	7.41	6.20
CN(C)C(=O)C1CCN(c2ccnc3c2c(/C=C2\Oc4ccc(NC(=O)Nc5ccc(N6CCOCC6)cc5)cc4C2=O)cn3C)CC1 [Compound 268, N,N-dimethyl-1-(1-methyl-3-{(Z)-[5-{[(4-morpholin-4-ylphenyl)carbamoyl]amino}-3-oxo-1-benzofuran-2(3H)-ylidene]methyl}-1H-pyrrolo[2,3-b]pyridin-4-yl)piperidine-4-carboxamide]	5.59	6.67	5.22
Cn1cc(/C=C2\Oc3ccc(NC(=O)Nc4ccc(N5CCOCC5)cc4)cc3C2=O)c2c(N3CC4CCC(C3)O4)ccnc21 [Compound 273, 1-[(2Z)-2-{[1-methyl-4-(8-oxa-3-azabicyclo[3.2.1]oct-3-yl)-1H-pyrrolo[2,3-b]pyridin-3-yl]methylidene}-3-oxo-2,3-dihydro-1-benzofuran-5-yl]-3-(4-morpholin-4-ylphenyl)urea]	5.24	5.47	< 5.00
CN(C)CCOc1ccc(NC(=O)Nc2ccc3c(c2)C(=O)/C(=C/c2cn(C)c4nccc(N5CCC(C(=O)N(C)C)CC5)c24)O3)cc1 [Compound 274, 1-{3-[(Z)-{5-[({4-[2-(dimethylamino)ethoxy]phenyl}carbamoyl)amino]-3-oxo-1-benzofuran-2(3H)-ylidene}methyl]-1-methyl-1H-pyrrolo[2,3-b]pyridin-4-yl}-N,N-dimethylpiperidine-4-carboxamide]	6.11	7.68	6.03
COC1CCN(C(=O)C2CCN(c3ccnc4c3c(/C=C3\Oc5ccc(NC(=O)Nc6cccnc6)cc5C3=O)cn4C)CC2)C1 (stereo not drawn) [Compound 275, 1-{(2Z)-2-[(4-{4-[(3-methoxypyrrolidin-1-yl)carbonyl]piperidin-1-yl}-1-methyl-1H-pyrrolo[2,3-b]pyridin-3-yl)methylidene]-3-oxo-2,3-dihydro-1-benzofuran-5-yl}-3-pyridin-3-ylurea]	5.79	7.89	5.88
Cn1cc(/C=C2\Oc3ccc(NC(=O)Nc4ccc(CN5CCCCC5)cc4)cc3C2=O)c2c(N3CC4CCC(C3)O4)ccnc21 [Compound 278, 1-[(2Z)-2-{[1-methyl-4-(8-oxa-3-azabicyclo[3.2.1]oct-3-yl)-1H-pyrrolo[2,3-b]pyridin-3-yl]methylidene}-3-oxo-2,3-dihydro-1-benzofuran-5-yl]-3-[4-(piperidin-1-ylmethyl)phenyl]urea]	6.13	7.64	6.35
Cn1cc(/C=C2\Oc3ccc(NC(=O)NC4CNC4)cc3C2=O)c2c(N3CC4CCC(C3)O4)ccnc21 [Compound 285, 1-azetidin-3-yl-3-[(2Z)-2-{[1-methyl-4-(8-oxa-3-azabicyclo[3.2.1]oct-3-yl)-1H-pyrrolo[2,3-b]pyridin-3-yl]methylidene}-3-oxo-2,3-dihydro-1-benzofuran-5-yl]urea]	7.31	7.94	6.27
Cn1cc(/C=C2\Oc3ccc(NC(=O)NC4CCN(C(=O)C(F)(F)F)CC4)cc3C2=O)c2c(N3CC4CCC(C3)O4)ccnc21 [Compound 286, 1-[(2Z)-2-{[1-methyl-4-(8-oxa-3-azabicyclo[3.2.1]oct-3-yl)-1H-pyrrolo[2,3-b]pyridin-3-yl]methylidene}-3-oxo-2,3-dihydro-1-benzofuran-5-yl]-3-[1-(trifluoroacetyl)piperidin-4-yl]urea]	6.45	6.97	5.76
